Measurements reported in US20240261417A1, “SOS1 DEGRADING AGENT AND PREPARATION METHOD THEREFOR AND APPLICATION THEREOF” (SHANGHAI LEADINGTAC PHARMACEUTICAL CO. LTD., priority 2021, published 2024).

Test system: KRAS G12V mutant human lung adenocarcinoma cells NCI-H441
Test: 3D cell proliferation inhibition assay, NCI-H441
Format: cell-based
Details: Homo sapiens, NCI-H441, 168 h, 7 days, CTG
Method: Inhibition of 3D cell proliferation by the compounds was investigated on KRAS G12C mutant human non-small cell lung cancer cells NCI-H358 (ATCC or Stem Cell Bank, Chinese Academy of Sciences), KRAS G12D mutant human metastatic pancreatic adenocarcinoma cells AsPC-1 (ATCC), KRAS G12V mutant human lung adenocarcinoma cells NCI-H441 (ATCC), and KRAS G13D mutant human colorectal adenocarcinoma epithelial cells DLD-1 (ATCC). The specific procedures were as follows:
200 nL of compound solution diluted in a gradient was added to corresponding microwells of a 384-well low-adsorption microwell plate (Corning, 3657) using an Echo sonic pipetting system (Labcyte, Echo 550), so that the final concentration of the test compound in the reaction system was in a range of 20000 nM-0.008 nM. Then 40 μL of cells at a certain density were added to the corresponding microplate. In addition to test wells for the test compounds, both a DMSO control well and a medium control well were set, with the DMSO control well containing DMSO and cells and the medium well containing only medium. After sample loading, the plate cover was applied, and the 384-well low-adsorption microplate was incubated in an incubator at 37° C. with 5% carbon dioxide for 7 days. After 7 days, the microplate was taken out, and 40 μL of CTG reagent (Promega, G9683) was added to each well. The plate was incubated at room temperature for 30 min and read on a microplate reader EnVision using the chemiluminescence program. The inhibition rates of the compounds at each concentration were calculated by the formula for the percentage inhibition of cell proliferation: inhibition rate %=(mean value of DMSO control group−single concentration reading value of compound)/(mean value of DMSO control group−mean value of medium control group)×100, and then nonlinear curve fitting was performed by GraphPad Prism 8 in the logarithmic concentration-inhibition rate to obtain the IC50 values of the compounds.

SMILES | IC50
COc1cc2nc(C)nc(N[C@H](C)c3cc(N)cc(C(F)(F)F)c3)c2cc1[C@H]1CC[C@H](C(=O)N2CCN(CC3CCC4(CC3)CCN(C(=O)c3ccc(Cl)c(N5CCC(=O)NC5=O)c3)CC4)CC2)CC1 [Example 2, 1-(5-(9-((4-((1R,4R)-4-(4-(((R)-1-(3-amino-5-(trifluoromethyl)phenyl)ethyl)amino)-7-methoxy-2-methylquinazolin-6-yl)cyclohexane-1-carbonyl)piperazin-1-yl)methyl)-3-azaspiro[5.5]undecane-3-carbonyl)-2-chlorophenyl)dihydropyrimidine-2,4(1H,3H)-dione] | 0.1 to 1 µM
COc1cc2nc(C)nc(N[C@H](C)c3cc(N)cc(C(F)(F)F)c3)c2cc1[C@H]1CC[C@H](C(=O)N2CCN(CCC3CCC4(CC3)CCN(C(=O)c3ccc(Cl)c(N5CCC(=O)NC5=O)c3)CC4)CC2)CC1 [Example 1, 1-(5-(9-(2-(4-((1R,4R)-4-(4-(((R)-1-(3-amino-5-(trifluoromethyl)phenyl)ethyl)amino)-7-methoxy-2-methylquinazolin-6-yl)cyclohexane-1-carbonyl)piperazin-1-yl)ethyl)-3-azaspiro[5.5]undecane-3-carbonyl)-2-chlorophenyl)dihydropyrimidine-2,4(1H,3H)-dione] | 0.03 to 0.05 µM
COc1cc2nc(C)nc(N[C@H](C)c3cccc4c3CCS4(=O)=O)c2cc1[C@H]1CC[C@H](C(=O)N2CCN(CC3CCC4(CC3)CCN(C(=O)c3ccc(Cl)c(N5CCC(=O)NC5=O)c3)CC4)CC2)CC1 [Example 10, 1-(2-chloro-5-(9-((4-((1R,4R)-4-(4-(((R)-1-(1,1-dioxo-2,3-dihydrobenzo[b]thiophen-4-yl)ethyl)amino)-7-methoxy-2-methylquinazolin-6-yl)cyclohexane-1-carbonyl)piperazin-1-yl)methyl)-3-azaspiro[5.5]undecane-3-carbonyl)phenyl)dihydropyrimidine-2,4(1H,3H)-dione] | ≤ 0.015 µM

Next, values leading:

IC50 | SMILES
0.1 to 1 µM | CNCc1ccccc1-c1csc([C@@H](C)Nc2nc(C)nc3cc(OC)c([C@H]4CC[C@H](C(=O)N5CCN(CC6CCC7(CC6)CCN(C(=O)c6ccc(OC)c(N8CCC(=O)NC8=O)c6)CC7)CC5)CC4)cc23)c1 [Example 73, 1-(2-methoxy-5-(9-((4-((1R,4R)-4-(7-methoxy-2-methyl-4-(((R)-1-(4-(2-((methylamino)methyl)phenyl)thien-2-yl)ethyl)amino)quinazolin-6-yl)cyclohexane-1-carbonyl)piperazin-1-yl)methyl)-3-azaspiro[5.5]undecane-3-carbonyl)phenyl)dihydropyrimidine-2,4(1H,3H)-dione]
0.05 to 0.1 µM | COc1cc2nc(C)nc(N[C@H](C)c3cc(N)cc(C(F)(F)F)c3)c2cc1[C@H]1CC[C@H](C(=O)N2CCC(CCOCC3CCN(C(=O)c4ccc(Cl)c(N5CCC(=O)NC5=O)c4)CC3)CC2)CC1 [Example 19, 1-(5-(4-((2-(1-((1R,4R)-4-(4-(((R)-1-(3-amino-5-(trifluoromethyl)phenyl)ethyl)amino)-7-methoxy-2-methylquinazolin-6-yl)cyclohexane-1-carbonyl)piperidin-4-yl)ethoxy)methyl)piperidine-1-carbonyl)-2-chlorophenyl)dihydropyrimidine-2,4(1H,3H)-dione]
0.1 to 1 µM | COc1cc2nc(C)nc(N[C@H](C)c3cc(N)cc(C(F)(F)F)c3)c2cc1[C@H]1CC[C@H](C(=O)N2CCN(CCOCC3CCN(C(=O)c4ccc(Cl)c(N5CCC(=O)NC5=O)c4)CC3)CC2)CC1 [Example 33, 1-(5-(4-((2-(4-((1R,4R)-4-(4-(((R)-1-(3-amino-5-(trifluoromethyl)phenyl)ethyl)amino)-7-methoxy-2-methylquinazolin-6-yl)cyclohexane-1-carbonyl)piperazin-1-yl)ethoxy)methyl)piperidine-1-carbonyl)-2-chlorophenyl)dihydropyrimidine-2,4(1H,3H)-dione]
